Assays:
[1] = test system: larval zebrafish; assay: Teratological and mortality assessment, static exposure 6 hpf to 5 dpf; format: in vivo; settings: 30 µM; by 3 dpf; data not shown
Method: At 4 hpf, embryos were treated with 50 µl of 41 mg/ml protease from Streptomyces griseus (P5147, Sigma-Aldrich, St. Louis, MO, United States) in 25 ml of FW for a maximum of 6 min to remove the chorion ([Truong et al., 2011]). At 5 hpf, embryos were placed in individual wells of 96-well plates filled with 100 µl of EM. At 6 hpf, embryos were exposed to a 2× concentration of the selected PCB congeners or controls that were diluted in 100 μl EM to produce a 1× concentration in a total of 200 µl solution. […] After exposure, plates were covered with Parafilm M (Bemis NA, Neenah, WI, United States) to reduce evaporation and placed in an incubator at 28.5°C with 14 h light (∼300 lux)/10 h dark cycles. Final DMSO concentrations were 0.2% (vol/vol) for all exposures. Fish were statically exposed until 5 dpf.
Exposed fish were examined daily for any gross morphological malformations and mortality using an Olympus Stereo Microscope Model SZ61 (Olympus, Japan) up to ×4.5 magnification. […] Teratological endpoints that were evaluated include yolk sac edema, pericardial edema, somite formation, deformities of the body axis, notochord, craniofacial structures, or caudal fin. Malformations were scored in a binary manner of either present or not present. Fish that were scored as neither malformed nor dead were deemed viable. […]

[2] = test system: larval zebrafish; settings: 2020, cited from earlier work
[3] = Enantioselective gas chromatographic analysis of PCB residues in larvae; format: in vivo, zebrafish; settings: residues in exposed larvae; no significant atropisomeric enrichment
Method: The enantioselective analysis of PCB 84 was performed on a 6890 Agilent gas chromatograph equipped with a ^63Ni-µECD detector and CP-Chiralsil-Dex CB capillary column with cyclodextrin directly bonded to dimethylpolysiloxane (25 m length, 0.25 mm inner diameter, 0.25 µm film thickness; Varian, Palo Alto, CA, United States). The temperature program was as follows ([Kania-Korwel et al., 2006]): starting temperature 50°C, hold for 1 min, 10°C/min to 140°C for 100 min, then 10°C/min to 200°C for 5 min. The enantioselective analysis of PCB 95 was performed on a 7890 Agilent gas chromatograph equipped with a ^63Ni-µECD detector and Chiraldex B-DM (BDM) capillary column (length, 30 m × inner diameter, 250 μm × 0.12 µm film thickness, Supelco; St. Louis, MO, United States). The following temperature program was used ([Uwimana et al., 2016]): starting temperature 50°C for 1 min, 10°C/min to 160°C for 90 min, then 10°C/min to 200°C for 10 min. For both instruments, the injector was operated in the splitless mode at 250°C, and the detector temperature was 250°C. […] Enantiomer fractions (EF) were calculated with the drop valley method ([Asher et al., 2009]; [Uwimana et al., 2016]) as EF = Area E1/(Area E1 + Area E2), were Area E1 and Area E2 denote the peak area of the first and second eluting atropisomer, respectively. […]

SMILES	loss of viability [1]	malformations after developmental exposure ([2]; exposure commenced shortly after fertilization, ref Ranasinghe et al.)	average EF (enantiomer fraction) values [3]	malformations or mortality ([2]; larval zebrafish younger than 7 dpf, static exposure, up to 10 μM, ref Aluru et al.)
Clc1ccc(Cl)c(-c2c(Cl)ccc(Cl)c2Cl)c1 [PCB 95, 2,2',3,5',6-pentachlorobiphenyl]	~100%	caused malformations	0.50 ± 0.01	–
Clc1cc(Cl)c(-c2cc(Cl)c(Cl)cc2Cl)cc1Cl [PCB 153, 2,2',4,4',5,5'-Hexachlorobiphenyl]	–	–	–	no malformations or mortality
Clc1cccc(-c2c(Cl)ccc(Cl)c2Cl)c1Cl [PCB 84]	–	–	0.50 ± 0.01	–

— PMC9582434, “Ryanodine receptor-active non-dioxin-like polychlorinated biphenyls cause neurobehavioral deficits in larval zebrafish” (Frontiers in Toxicology, 2022)
